The record followed here is PubChem BioAssay AID1996.

The structures appear in SMILES notation. Converted amounts (≈) assume the structure as drawn.

For the data set the following is noted: buffer; pH 7.4; 200.0 µM.
The solubility (kinetic) is solubility judged after dilution from a stock solution rather than from solid. Regarding `CC(C)(C)NS(=O)(=O)c1ccc(NC(=O)CS(=O)(=O)Cc2ccccc2)cc1`, the kinetic solubility is > 63.7 µg/mL.
Under `CCOC(=O)c1cc2c(ccn2C)n1CC(=O)N(C)C` stands > 41.6 µg/mL; under `COC(=O)c1cn(C(=O)c2cccc3ccccc23)c2ccccc12`, < 0.7 µg/mL; under `Cc1[nH]c2ccccc2c(=O)c1CN1CCCCCC1`, > 40.6 µg/mL.
Take `COc1cccc(/C=C(/C(=O)OCC(N)=O)c2ccccc2)c1`: the solubility (kinetic) is > 46.7 µg/mL.
For the molecule `O=C(NCC1CCCO1)c1cccc(NC(=O)c2cccs2)c1` (stereo unspecified), the kinetic solubility is > 49.6 µg/mL.
Regarding `Cc1ccc(S(=O)(=O)n2ccc3c2CCCC3=O)cc1`, the kinetic solubility is > 43.4 µg/mL.
Then `COc1cccc(-c2nc3ccc([N+](=O)[O-])cc3o2)c1`, with < 0.3 µg/mL; and `COC(=O)Cc1c(O)ccn(CCc2c[nH]c3ccccc23)c1=O`, with > 49 µg/mL; and `CC(Oc1cccc(Br)c1)C(=O)Nc1cccc(S(=O)(=O)N2CCOCC2)c1` (stereo unspecified), with 16.2 µg/mL (≈ 34.5 µM).
For `CCN(Cc1nc(-c2ccc(OC)cc2)no1)C(=O)c1ccoc1C`, the kinetic solubility was determined as 41.1 µg/mL (≈ 120 µM). Against the preceding molecule, the solubility kinetic is about 2.5-fold higher.
Then `COc1ccc(C)cc1NC(=O)C1CCN(C(=O)c2ccco2)CC1`, with > 51.4 µg/mL.
Under `Cc1cc(C)c(S(=O)(=O)c2ccccc2F)c(=O)[nH]1` stands > 42.2 µg/mL; under `Cc1ccc2oc(=O)c3cc(C(=O)N4CCN(C)CC4)sc3c2c1`, 11.8 µg/mL (≈ 34.5 µM); under `O=C(COC(=O)Cn1cnc2ccccc21)Nc1ccccc1C(F)(F)F`, > 56.6 µg/mL.
As to `CCOc1ccc(S(=O)(=O)NCCC(=O)OCC(=O)NC(=O)c2cccn2C)cc1`, the kinetic solubility was 22.2 µg/mL (≈ 50.7 µM).
Then `O=Cc1cccnc1SCc1ccccc1`, with 15.5 µg/mL (≈ 67.6 µM); and `CC(Sc1cccc[n+]1[O-])c1ccccc1` (stereo unspecified), with > 34.7 µg/mL; and `CCSc1nc2ccccc2n1CC(=O)O`, with > 35.4 µg/mL.
Under `Cc1cccc(C)c1NC(=O)CNC(=O)c1c(C)nn(C)c1Cl` stands > 50.2 µg/mL.
Molecule `O=C(Nc1cnccn1)Nc1ccccc1F` registered a solubility (kinetic) of 8.7 µg/mL (≈ 37.5 µM).
Regarding `Cc1cc(NC(=O)C(C)Oc2ccc(C(C)(C)C)cc2)no1` (stereo unspecified), the solubility (kinetic) was 4 µg/mL (≈ 13.2 µM).
As for `NC(=O)C1(C(N)=O)OC1c1ccc(Cl)c(Cl)c1` (stereo unspecified), the solubility (kinetic) was > 41.3 µg/mL.
Take `Cc1nc(Nc2ccccc2O)c2oc3ccccc3c2n1`: the solubility (kinetic) is < 0.2 µg/mL.
Under `O=C(Nc1ccc(C2CC2(Cl)Cl)cc1)c1cccc([N+](=O)[O-])c1` (stereo unspecified) stands < 0.4 µg/mL; under `O=C(COC(=O)c1ccccn1)NC(=O)c1ccccc1`, 35 µg/mL (≈ 123 µM); under `Cc1csc(NC(=O)CN2C(=O)c3ccccc3C2=O)c1C(N)=O`, 13 µg/mL (≈ 37.9 µM).
With `CCOC(=O)N1CCN(CC(O)c2c[nH]c3ccc(OC)cc23)CC1` (stereo unspecified), the kinetic solubility was > 52.1 µg/mL.
For `CC(C(=O)N1CCCC1)N(c1ccccc1)S(C)(=O)=O` (stereo unspecified), the solubility (kinetic) was > 44.5 µg/mL.
Under `Cc1nnc(SC(C)C(=O)NCC2CCCO2)s1` (stereo unspecified) stands > 43.1 µg/mL.
With `Cc1cccc(C)c1NC(=O)C(=O)c1cn(C)c2ccccc12`, the kinetic solubility is < 0.3 µg/mL.
Then `Cc1cc([N+](=O)[O-])ccc1NCc1ccc2c(c1)OCCO2`, with 10.8 µg/mL (≈ 36 µM).
As for `CCOC(=O)C1(C)Oc2cccnc2NC1=O` (stereo unspecified), the kinetic solubility was found to be 35.2 µg/mL (≈ 149 µM).
`NS(=O)(=O)c1cc2c(cc1C(F)(F)F)NCNS2(=O)=O`: the solubility (kinetic) is > 49.7 µg/mL.
Consider `O=C(NC1CCCC1)c1cc(-c2ccc(Cl)cc2Cl)on1`, for which the solubility (kinetic) came to 1 µg/mL (≈ 3.08 µM).
`O=C(O)c1cccc(Nc2ccc3nonc3c2[N+](=O)[O-])c1` showed a kinetic solubility of 35.9 µg/mL (≈ 120 µM).
Take `O=C(Nc1cccc(S(=O)(=O)N2CCCCC2)c1)C1CC1`: the solubility (kinetic) was > 46.3 µg/mL.
`O=C(COC(=O)c1ccncc1)Nc1cccc2ccccc12` registered a kinetic solubility of 40.3 µg/mL (≈ 132 µM).
Then `O=C(Nc1cccc2ccccc12)OCc1cncs1`, with > 42.6 µg/mL.
As to `COc1ccc(CNc2ncccc2[N+](=O)[O-])cc1`, the solubility (kinetic) is 17 µg/mL (≈ 65.6 µM).
`CCc1ccc(NC(=O)c2cc(C)no2)cc1` registered a kinetic solubility of 14.3 µg/mL (≈ 62.1 µM).
Turning to `CN(CC(=O)NCC1COc2ccccc2O1)S(=O)(=O)c1ccc(Cl)cc1` (stereo unspecified), the solubility (kinetic) came to 17.9 µg/mL (≈ 43.6 µM).
`Cc1cc(=O)oc2cc(NS(=O)(=O)c3ccccc3)ccc12`: the solubility (kinetic) is 10.5 µg/mL (≈ 33.3 µM).
Turning to `CCC(=O)Oc1ccc(NC(=O)c2ccco2)cc1`, the kinetic solubility is > 38.9 µg/mL.
Then `O=C(NCC(c1ccco1)N1CCOCC1)c1ccccc1` (stereo unspecified), with > 45.1 µg/mL.
Then `CN(C)c1nc(/C=C(\C#N)C(N)=O)c(Cl)n1-c1ccc(F)cc1`, with 8.3 µg/mL (≈ 24.9 µM); and `Brc1cc(-c2ccccc2)nc(-c2ccccc2)n1`, with < 0.3 µg/mL.
In turn, `Cc1cc(F)c(F)c(C(=O)N2CCCCC2C)c1Cl` (stereo unspecified) displayed a kinetic solubility of 34.6 µg/mL (≈ 120 µM).
In turn, `Cn1c(=NC(=O)C(C)(C)C)sc2cccc(F)c21` returned a kinetic solubility of 1 µg/mL (≈ 3.75 µM).
Consider `CC(C)NC(NC(=O)/C=C/c1ccccc1)C(Cl)(Cl)Cl` (stereo unspecified), for which the solubility (kinetic) stood at 44.7 µg/mL (≈ 133 µM).
With `Cn1c(N)c(C(=O)COC(=O)Cc2ccc(Cl)c(Cl)c2)c(=O)n(C)c1=O`, the kinetic solubility is 25.7 µg/mL (≈ 64.2 µM).
